# Source: US11136370B2, “Compositions and methods for thrombin generation assay” (The Scripps Research Institute, priority 2016, dated 2021)
# “Also recorded” adds a separate entry of the source.
# Test system: fibrillar collagen type I
# Assay: Blood perfusion over fibrillar collagen type I, volume of platelet aggregates and fibrin
# Assay type: cell-based, human
# Details: blood of treated patients, collagen surface
# Procedure: The volume of platelet aggregates and deposited fibrin was measured by confocal microscopy. Statistical analysis by one-way ANOVA and Tukey post-test. *P<0.05; **P<0.01; ***P<0.001.
# Glass coverslips treated with 0.2 mg/ml poly-L-lysine for 6 h at 37° C. were coated with rTF for 18-20 hours at 37° C. or 2.5 mg/ml acid-insoluble type I collagen for 2 hours at 22-25° C. Then they were rinsed with pH 7.4 buffered-saline, assembled in a rectangular flow chamber with a 125 μm-high silicon gasket and positioned on a confocal microscope stage for analysis. Venous blood for testing was collected into final 10.9 mM trisodium citrate using a plastic syringe for normal volunteers or Vacutainer tubes (Becton Dickinson, Buccinasco, Milan) for patients and controls. Before perfusion at a flow rate yielding an initial wall shear rate of 300 s^−1 maintained with a syringe pump (Harvard Apparatus, Holliston, Mass.), CaCl2 was added to obtain 1.29 mM Ca^2+. In the blood of patients—potentially hypercoagulable—and related controls, lepirudin (50 nM) was also added to neutralize thrombin possibly generated before testing. […] For experiments with WT and mutant FVIIa, cells from group O citrated blood, containing 50 μg/ml CTI and 10 U/ml (ADPase activity) apyrase, were washed free of plasma by sequential centrifugation steps at 1500 g for 7 min. After the first, plasma was replaced with an equal volume of calcium-free Tyrode buffer, pH 6.5, with 5 U/ml apyrase; then with buffer and 1.25 U/ml apyrase; and finally with human FVII deficient plasma (George King Bio-Medical, Overland Park, Kans.) up to the original blood volume. […] Experiments in Milan (Italy) were performed with a Leica TCS SP5 microscope and HCX PL APO 63x/1.40 NA oil immersion objective (Leica Microsystems GmbH, Wetzlar, Germany); in La Jolla (California) with a Zeiss Axiovert 135M/LSM 410 and Plan-Apochromat 40x/1.40 NA oil immersion objective (Carl Zeiss AG, Oberkochen, Germany).
# Platelets adhering and aggregating onto the surface were visualized by adding quinacrine-HCl (mepacrine; 10 μg/ml; Sigma-Aldrich) to blood. Deposited fibrin was visualized with Alexa Fluor 546-labeled (Invitrogen) mouse monoclonal IgG (50 μg/ml) specific for the B chain of mouse and human fibrin (HB-8545; ATCC). […] This was followed by buffer (DMEM) for 2 minutes to facilitate fibrin quantification by confocal z section analysis using a Zeiss Axiovert 135M/LSM 410 microscope (Carl Zeiss) and Plan-Apochromat×63/1.40 NA oil immersion objective. […] Deposited fibrin volume was measured from confocal sections collected at 4 preset positions in the flow chamber. Total volume of deposited platelets and fibrin was calculated from the sum of the respective area coverage per section multiplied by the z interval (2 μm). […]
structure (smiles),measurement,value
O=C(NC[C@H]1CN(c2ccc(N3CCOCC3=O)cc2)C(=O)O1)c1ccc(Cl)s1 [Rivaroxaban],mean volume of platelet aggregates vs controls,not significantly different
same,volume of deposited fibrin vs controls,not significantly decreased; also recorded: not significantly different from normal
